The target in experiment [1] is KRAS G12D (Homo sapiens, UniProt P01116, G12D). Kind of experiment: KRAS G12D Probe Displacement Assay (TR-FRET, GDP-loaded). The class given is binding. An excerpt: (§1) The synthetic routes of probe 1 and 2, which have been disclosed in PCT/CN2022/070676, are hereby incorporated herein.
In general terms: In TR-FRET formats the signal depends on donor and acceptor labels being close together.

In experiment [2] the target is WT KRAS (Homo sapiens, UniProt P01116). In words: KRAS WT Probe Displacement Assay (TR-FRET, GDP-loaded). The class given is binding.
Source text: as §1

The mark [3] stands for this setting: KRAS G12D, read-out: KRAS^G12D Probe Displacement Assay IC50.
Setting [4] is: KRAS WT, read-out: KRAS^WT Probe Displacement Assay IC50.
Where [5] appears, read: KRAS^G12D Probe Displacement Assay IC50, KRAS G12D.
[6] abbreviates: KRAS^WT Probe Displacement Assay IC50, KRAS WT.

Read-outs that look alike come from different tables or passages of the source.

Sequence of KRAS G12D (P01116 1-188 isoform P01116-2 G12D): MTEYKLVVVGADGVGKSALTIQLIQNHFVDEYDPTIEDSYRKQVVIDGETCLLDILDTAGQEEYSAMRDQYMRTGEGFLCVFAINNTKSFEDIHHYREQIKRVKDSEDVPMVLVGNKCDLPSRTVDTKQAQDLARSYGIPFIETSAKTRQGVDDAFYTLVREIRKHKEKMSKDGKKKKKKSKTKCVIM
Sequence of WT KRAS (P01116 1-188 isoform P01116-2): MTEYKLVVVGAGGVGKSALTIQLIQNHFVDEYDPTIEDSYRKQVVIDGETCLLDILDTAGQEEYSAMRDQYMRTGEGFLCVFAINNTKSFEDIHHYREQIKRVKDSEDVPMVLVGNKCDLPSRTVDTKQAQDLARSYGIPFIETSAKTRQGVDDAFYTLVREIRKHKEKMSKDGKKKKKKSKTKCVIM

As usually defined, the IC50 is the concentration that inhibits the measured activity by half. Take `Cc1cc(N)cc(-c2nc3c4c(nc(O[C@@H](C)[C@@H]5CCCN5C5COC5)nc4c2F)N2C[C@H]4CC[C@H](N4)[C@H]2CCO3)c1C(F)(F)F` [Example 227, 3-((6aR,7S,10R)-1-fluoro-13-((S)-1-((S)-1-(oxetan-3-yl)pyrrolidin-2-yl)ethoxy)-5,6,6a,7,8,9,10,11-octahydro-4-oxa-3,11a,12,14,15-pentaaza-7,10-methanocyclohepta[4,5]cycloocta[1,2,3-de]naphthalen-2-yl)-5-methyl-4-(trifluoromethyl)aniline]: the IC50 is less than 0.3 nM in experiment [1] (setting [3]) and 3 to 1000 nM in experiment [2] (setting [4]).
Consider `Cc1cc(N)cc(-c2nc3c4c(nc(OCC5(CN6CCCOCC6)CC5)nc4c2F)N2C[C@H]4CC[C@H](N4)[C@H]2CCO3)c1C(F)(F)F` [Example 103, 3-((6aR,7S,10R)-13-- ((1-((1,4-oxazepan-4-yl)methyl)cyclopropyl)methoxy)-1-fluoro-5,6,6a,7,8,9,10,11-octahydro-4-oxa-3,11a, 12,14,15-pentaaza-7,10-methanocyclohepta [4,5]cycloocta [1,2,3-de]naphthalen-2-yl)-5-methyl-4-(trifluoromethyl)aniline], for which the half-inhibitory concentration (IC50) in experiment [1] (setting [3]) is less than 0.3 nM; in experiment [2] (setting [4]), 3 to 1000 nM.
As for `Cc1cc(N)cc(-c2nc3c4c(nc(O[C@@H](C)[C@@H]5CCCN5C5CCOC5)nc4c2F)N2C[C@H]4CC[C@H](N4)[C@H]2CCO3)c1C(F)(F)F` (single isomer, unassigned) [Example 228], the 50% inhibitory concentration (IC50) in experiment [1] (setting [3]) is less than 0.3 nM; in experiment [2] (setting [4]), 3 to 1000 nM.
Turning to `COC1CN(CC2(COc3nc4c5c(nc(-c6cc(N)cc(C)c6C(F)(F)F)c(F)c5n3)OCC[C@@H]3[C@@H]5CC[C@H](CN43)N5)CC2)C1` [Example 83, 3-((6aR,7S,10R)-1-fluoro-13-((1-((3-methoxyazetidin-1-yl)methyl)cyclopropyl)methoxy)-5,6,6a,7,8,9,10,11-octahydro-4-oxa-3,11a,12,14,15-pentaaza-7,10-methanocyclohepta [4,5]cycloocta [1,2,3-de]naphthalen-2-yl)-5-methyl-4-(trifluoromethyl)aniline], the IC50 in experiment [1] (setting [3]) is less than 0.3 nM; in experiment [2] (setting [4]) it was 3 to 1000 nM.
Taken in the same sequence, the figures for `Cc1cc(N)cc(-c2nc3c4c(nc(OCC5(CN6CC7(C6)CC(F)(F)C7)CC5)nc4c2F)N2C[C@H]4CC[C@H](N4)[C@H]2CCO3)c1C(F)(F)F` [Example 176, 3-((6aR,7S,10R)-13-((1-((6,6-difluoro-2-azaspiro[3.3]heptan-2-yl)methyl)cyclopropyl)methoxy)-1-fluoro-5,6,6a,7,8,9,10,11-octahydro-4-oxa-3,11a,12,14,15-pentaaza[7,10]methanocyclohepta[4,5]cycloocta[1,2,3-de]naphthalen-2-yl)-5-methyl-4-(trifluoromethyl)aniline] were less than 0.3 nM and 3 to 1000 nM.
As to `CCN1C[C@H](F)C[C@H]1[C@H](C)Oc1nc2c3c(nc(-c4cc(N)cc(C)c4C(F)(F)F)c(F)c3n1)OCC[C@@H]1[C@@H]3CC[C@H](CN21)N3` [Example 222, 3-((6aR,7S,10R)-13-((S)-1-((2S,4R)-1-ethyl-4-fluoropyrrolidin-2-yl)ethoxy)-1-fluoro-5,6,6a,7,8,9,10,11-octahydro-4-oxa-3,11a,12,14,15-pentaaza-7,10-methanocyclohepta[4,5]cycloocta[1,2,3-de]naphthalen-2-yl)-5-methyl-4-(trifluoromethyl)aniline], the IC50 is less than 0.3 nM in experiment [1] (setting [3]) and 3 to 1000 nM in experiment [2] (setting [4]).
For the compound `COC1CCCN(CC2(COc3nc4c5c(nc(-c6cc(N)cc(C)c6C(F)(F)F)c(F)c5n3)OCC[C@@H]3[C@@H]5CC[C@H](CN43)N5)CC2)C1` (stereo partly drawn) [Example 119, 3-((6aR,7S,10R)-1-fluoro-13-((1-((3-methoxypiperidin-1-yl)methyl)cyclopropyl)methoxy)-5,6,6a,7,8,9,10,11-octahydro-4-oxa-3,11a,12,14,15-pentaaza-7,10-methanocyclohepta [4,5]cycloocta[1,2,3-de]naphthalen-2-yl)-5-methyl-4-(trifluoromethyl) aniline], the IC50 in experiment [1] (setting [5]) was less than 0.3 nM; in experiment [2] (setting [6]) it was 3 to 1000 nM.
In the case of `Cc1cc(N)cc(-c2nc3c4c(nc(OCC5(CN6CCOC7(CC7)C6)CC5)nc4c2F)N2C[C@H]4CC[C@H](N4)[C@H]2CCO3)c1C(F)(F)F` [Example 120, 3-((6aR,7S,10R)-13-((1-((4-oxa-7-azaspiro[2.5]octan-7-yl)methyl)cyclopropyl)methoxy)-1-fluoro-5,6,6a,7,8,9,10,11-octahydro-4-oxa-3,11a,12,14,15-pentaaza[7,10]methanocyclohepta [4,5]cycloocta[1,2,3-de]naphthalen-2-yl)-5-methyl-4-(trifluoromethyl)aniline], the values for the IC50 in experiment [1] (setting [3]) and in experiment [2] (setting [4]) were less than 0.3 nM and 0.3 to 3 nM, respectively.
Taken in the same sequence, the figures for `Cc1cc(N)cc(-c2nc3c4c(nc(O[C@@H](C)[C@@H]5CCCN5C)nc4c2F)N2C[C@H]4CC[C@H](N4)[C@H]2CCO3)c1C(F)(F)F` [Example 37, 3-((6aR,7S,10R)-1-fluoro-13-((S)-1-((S)-1-methylpyrrolidin-2-yl)ethoxy)-5,6,6a,7,8,9,10,11-octahydro-4-oxa-3,11a,12,14,15-pentaaza-7,10-methanocyclohepta[4,5]cycloocta [1,2,3-de]naphthalen-2-yl)-5-methyl-4-(trifluoromethyl)aniline] were less than 0.3 nM and 3 to 1000 nM.
In the case of `COC1CN(CC2(COc3nc4c5c(nc(-c6cc(N)cc(C)c6C(F)(F)F)c(F)c5n3)OCC[C@@H]3[C@@H]5CC[C@H](CN43)N5)CC2(F)F)C1` (single isomer, unassigned) [Example 20], the IC50 in experiment [1] (setting [5]) is less than 0.3 nM; in experiment [2] (setting [6]) it was 3 to 1000 nM.
For `Cc1nc(N)cc(-c2nc3c4c(nc(OCC5(CN6CCC(=C(F)F)CC6)CC5)nc4c2F)N2C[C@H]4CC[C@H](N4)[C@H]2CCO3)c1C(F)(F)F` [Example 147, 4-((6aR,7S,10R)-13-((1-((4-(difluoromethylene)piperidin-1-yl)methyl)cyclopropyl)methoxy)-1-fluoro-5,6,6a,7,8,9,10,11-octahydro-4-oxa-3,11a,12,14,15-pentaaza-7,10-methano-cyclohepta[4,5]cycloocta [1,2,3-de]naphthalen-2-yl)-6-methyl-5-(trifluoromethyl)pyridin-2-amine], the IC50 in experiment [1] (setting [3]) is less than 0.3 nM; in experiment [2] (setting [4]) it was 3 to 1000 nM.
Take `Cc1cc(N)cc(-c2nc3c4c(nc(OCC5(CN6CCC(=C(F)F)C6)CC5)nc4c2F)N2C[C@H]4CC[C@H](N4)[C@H]2CCO3)c1C(F)(F)F` [Example 149, 3-((6aR,7S,10R)-13-((1-((3-(difluoromethylene)pyrrolidin-1-yl)methyl)cyclopropyl)methoxy)-1-fluoro-5,6,6a,7,8,9,10,11-octahydro-4-oxa-3,11a,12,14,15-pentaaza-7,10-methano-cyclohepta[4,5]cycloocta [1,2,3-de]naphthalen-2-yl)-5-methyl-4-(trifluoromethyl) aniline]: the concentration for half-maximal inhibition (IC50) in experiment [1] (setting [5]) is less than 0.3 nM; in experiment [2] (setting [6]), 3 to 1000 nM.
`Cc1cc(N)cc(-c2nc3c4c(nc(OCC5(C)CN(C)CCC5C(F)F)nc4c2F)N2C[C@H]4CC[C@H](N4)[C@H]2CCO3)c1C(F)(F)F` (single isomer, unassigned) [Example 245]: the IC50 was less than 0.3 nM in experiment [1] (setting [3]) and 0.3 to 3 nM in experiment [2] (setting [4]).
Consider `Cc1cc(N)cc(-c2nc3c4c(nc(OCC5(CN6CCC(=CF)CC6)CC5)nc4c2F)N2C[C@H]4CC[C@H](N4)[C@H]2CCO3)c1C(F)(F)F` [Example 154, 3-((6aR,7S,10R)-1-fluoro-13-((1-((4-(fluoromethylene)piperidin-1-yl)methyl)cyclopropyl)methoxy)-5,6,6a,7,8,9,10,11-octahydro-4-oxa-3,11a,12,14,15-pentaaza-7,10-methanocyclohepta[4,5]cycloocta [1,2,3-de]naphthalen-2-yl)-5-methyl-4-(trifluoromethyl)aniline], for which the IC50 in experiment [1] (setting [3]) was less than 0.3 nM; in experiment [2] (setting [4]) it was 0.3 to 3 nM.
With `Cc1cc(N)cc(-c2nc3c4c(nc(OCC5(CN6CCCC(C)(O)C6)CC5)nc4c2F)N2C[C@H]4CC[C@H](N4)[C@H]2CCO3)c1C(F)(F)F` (mixture of isomers) [Example 116, 1-((1-((((6aR,7S, 10R)-2-(5-amino-3-methyl-2-(trifluoromethyl)phenyl)-1-fluoro-5,6,6a,7,8,9,10,11-octahydro-4-oxa-3,11a,12,14,15-pentaaza-7,10-methanocyclohepta [4,5]cycloocta [1,2,3-de]naphthalen-13-yl)oxy)methyl)cyclopropyl)methyl)-3-methylpiperidin-3-ol], the IC50 in experiment [1] (setting [3]) lay in the range of 0.3 to 3 nM; in experiment [2] (setting [4]), 3 to 1000 nM.
For `C=CCN1CCC[C@H]1[C@H](C)Oc1nc2c3c(nc(-c4cc(N)cc(C)c4C(F)(F)F)c(F)c3n1)OCC[C@@H]1[C@@H]3CC[C@H](CN21)N3` [Example 231, 3-((6aR,7S,10R)-13-((S)-1-((S)-1-allylpyrrolidin-2-yl)ethoxy)-1-fluoro-5,6,6a,7,8,9,10,11-octahydro-4-oxa-3,11a,12,14,15-pentaaza-7,10-methanocyclohepta[4,5]cycloocta[1,2,3-de]naphthalen-2-yl)-5-methyl-4-(trifluoromethyl)aniline] the same measures were less than 0.3 nM and 3 to 1000 nM.
For `CN(C)C[C@]1(COc2nc3c4c(nc(-c5cc(N)cc(Cl)c5C(F)(F)F)c(F)c4n2)OCC[C@@H]2[C@@H]4CC[C@H](CN32)N4)CC1(F)F` [Example 44, 3-chloro-5-((6aR,7S,10R)-13-(((S)-1-((dimethylamino)methyl)-2,2-difluorocyclopropyl)methoxy)-1-fluoro-5,6,6a,7,8,9,10,11-octahydro-4-oxa-3,11a,12,14,15-pentaaza-7,10-methanocyclohepta[4,5]cycloocta [1,2,3-de]naphthalen-2-yl)-4-(trifluoromethyl)aniline], the IC50 in experiment [1] (setting [3]) was less than 0.3 nM; in experiment [2] (setting [4]) it was 0.3 to 3 nM.

The record behind these values is US20260347373A1, “HETEROCYCLIC COMPOUNDS, COMPOSITIONS THEREOF, AND METHODS OF TREATMENT THEREWITH” (BeOne Medicines I GmbH, priority 2023, published 2026).
